Reference: patent US10821115B2, “Compounds that inhibit Mcl-1 protein” (priority 2017, dated 2020)
Read-outs that look alike come from different tables or passages of the source.

Columns and labels:
[1] = test system: human multiple myeloma cell line, OPM-2; assay: Cell viability assay (OPM-2 10 FBS), CellTiter-Glo; type: cell-based
In short: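 Steps: plate cells at 3000/well in 10% FBS growth medium, add serially diluted compound, incubate 16 h at 37 °C with 5% CO2, add detection reagent and read luminescence after 25 min. A 4-parameter logistic model gives IC50.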

[2] = biological target: recombinant human Mcl-1 (residues 171-327) / Bim interaction (Homo sapiens (Human), UniProt Q07820); assay: biochemical; type: binding; settings: read-out: Mcl-1 HTRF IC50
[3] = Homo sapiens, OPM-2, 16 h, read-out: OPM-2 10% FBS IC50 IP, OPM-2 cells, 10% FBS, 16 h incubation
[4] = 0.1 nM Mcl-1(171-327), 0.05 nM biotin-Bim (51-76)
[5] = Homo sapiens, OPM-2, 16 h, read-out: OPM-2 10% FBS IC50 IP, OPM-2 cells, 10% FBS, 16 h, CellTiter-Glo
[6] = TR-FRET, Mcl-1(171-327) / biotin-Bim (51-76)
[7] = read-out: OPM-2 10% FBS IC50 IP, OPM-2 cells, 10% FBS, 16 h, CellTiter-Glo

recombinant human Mcl-1 (residues 171-327) / Bim interaction, sequence (Q07820 171-327): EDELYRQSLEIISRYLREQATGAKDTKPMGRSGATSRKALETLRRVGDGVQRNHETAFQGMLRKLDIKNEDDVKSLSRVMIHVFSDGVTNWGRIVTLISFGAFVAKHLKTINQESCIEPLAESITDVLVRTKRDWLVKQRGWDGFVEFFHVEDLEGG

Structure (SMILES) | IC50 [1, 3] [nM] | IC50 [2, 4] [nM] | IC50 [1, 5] [nM] | IC50 [2, 6] [nM] | IC50 [1, 7] [nM]
CO[C@]1(CN2CC(C)(C#N)C2)/C=C/C[C@H](C)[C@@H](C)S(=O)(=O)NC(=O)c2ccc3c(c2)N(C[C@@H]2CC[C@H]21)C[C@@]1(CCCc2cc(Cl)ccc21)CO3 [Example 71, 1-(((1S,3′R,6′R,7′R,8′E,11′S, 12′R)-6-chloro-7′-methoxy-11′,12′-dimethyl-13′,13′-dioxido-15′-oxo-3,4-dihydro-2H-spiro[naphthalene-1,22′-[20]oxa[13]thia[1,14]diazatetracyclo [14.7.2.0~3,6~.0~19,24~]pentacosa[8,16,18,24]tetraen]-7′-yl)methyl)-3-methyl-3-azetidinecarbonitrile] | 1140 | 0.371 |  |  | 
CO[C@@]1(CN2CCN3CCOC[C@@H]3C2)/C=C/[C@H](C)[C@H](C)CS(=O)(=O)NC(=O)c2ccc3c(c2)N(C[C@@H]2CC[C@H]21)C[C@@]1(CCCc2cc(Cl)ccc21)CO3 [Example 156, (1S,3′R,6′R,7′S,8′E,10′S,11′S)-6-chloro-7′-((9aS)-hexahydropyrazino[2,1-c][1,4]oxazin-8(1H)-ylmethyl)-7′-methoxy-10′,11′-dimethyl-3,4-dihydro-2H,15′H-spiro[naphthalene-1,22′-[20]oxa[13]thia[1,14]diazatetracyclo [14.7.2.0~3,6~.0~19,24~]pentacosa[8,16,18,24]tetraen]-15′-one 13′,13′-dioxide] | 62 | 0.096 |  |  | 
C[C@@H]1[C@@H](C)CCC[C@](O)(CC(=O)Nc2ccncn2)[C@@H]2CC[C@H]2CN2C[C@@]3(CCCc4cc(Cl)ccc43)COc3ccc(cc32)C(=O)NS1(=O)=O [Example 100174, 2-((1S,3′R,6′R,7′S,11′S,12′R)-6-chloro-7′-hydroxy-11′,12′-dimethyl-13′,13′-dioxido-15′-oxo-3,4-dihydro-2H-spiro[naphthalene-1,22′-[20]oxa[13]thia[1,14]diazatetracyclo [14.7.2.0~3,6~.0~19,24~]pentacosa[16,18,24]trien]-7′-yl)-N-4-pyrimidinylacetamide] |  |  | 1910 | 2.02 | 
CO[C@@]1(CN2CCN3C(=O)COC[C@@H]3C2)/C=C/C[C@H](C)[C@@H](C)S(=O)(=O)NC(=O)c2ccc3c(c2)N(C[C@@H]2CC[C@H]21)C[C@@]1(CCCc2cc(Cl)ccc21)CO3 [Example 141, (1S,3′R,6′R,7′S,8′E,11′S,12′R)-6-chloro-7′-methoxy-11′,12′-dimethyl-7′-(((9aS)-4-oxohexahydropyrazino[2,1-c][1,4]oxazin-8(1H)-yl)methyl)-3,4-dihydro-2H,15′H-spiro[naphthalene-1,22′-[20]oxa[13]thia[1,14]diazatetracyclo [14.7.2.0~3,6~.0~19,24~]pentacosa[8,16,18,24]tetraen]-15′-one 13′,13′-dioxide] | 367 | 0.152 |  |  | 
CCO[C@@]1(CN2CCC3(CC2)COC3)/C=C/C[C@H](C)[C@@H](C)S(=O)(=O)NC(=O)c2ccc3c(c2)N(C[C@@H]2CC[C@H]21)C[C@@]1(CCCc2cc(Cl)ccc21)CO3 [Example 109, (1S,3′R,6′R,7′S,8′E,11′S,12′R)-6-chloro-7′-ethoxy-11′,12′-dimethyl-7′-(2-oxa-7-azaspiro[3,5]non-7-ylmethyl)-3,4-dihydro-2H,15′H-spiro[naphthalene-1,22′-[20]oxa[13]thia[1,14]diazatetracyclo [14.7.2.0~3,6~.0~19,24~]pentacosa[8,16,18,24]tetraen]-15′-one 13′,13′-dioxide] | 916 | 1.04 |  |  | 
CC[C@@H]1CC/C=C/[C@](O)(C(F)(F)F)[C@@H]2CC[C@H]2CN2C[C@@]3(CCCc4cc(Cl)ccc43)COc3ccc(cc32)C(=O)NS1(=O)=O [Example 100047, (1S,3′R,6′R,7′R,8′E,12′R)-6-chloro-12′-ethyl-7′-hydroxy-7′-(trifluoromethyl)-3,4-dihydro-2H,15′H-spiro[naphthalene-1,22′-[20]oxa[13]thia[1,14]diazatetracyclo [14.7.2.0~3,6~.0~19,24~]pentacosa[8,16,18,24]tetraen]-15′-one 13′,13′-dioxide] |  |  |  | 5.15 | 2540
COCC[C@H]1[C@@H](C)C/C=C/[C@](CN2CCN3CCOC[C@@H]3C2)(OC)[C@@H]2CC[C@H]2CN2C[C@@]3(CCCc4cc(Cl)ccc43)COc3ccc(nc32)C(=O)NS1(=O)=O [Example 22, (1S,3′R,6′R,7′S,8′E,11′S,12′S)-6-chloro-7′-((9aS)-hexahydropyrazino[2,1-c][1,4]oxazin-8(1H)-ylmethyl)-7′-methoxy-12′-(2-methoxyethyl)-11′-methyl-3,4-dihydro-2H,15′H-spiro[naphthalene-1,22′-[20]oxa[13]thia[1,14,25]triazatetracyclo [14.7.2.0~3,6~.0~19,24~]pentacosa[8,16,18,24]tetraen]-15′-one 13′,13′-dioxide] | 2230 | 0.669 |  |  | 
COC[C@@H]1[C@@H](C)C/C=C/[C@](CN2CCN(C3COC3)CC2)(OC)[C@@H]2CC[C@H]2CN2C[C@@]3(CCCc4cc(Cl)ccc43)COc3ccc(cc32)C(=O)NS1(=O)=O [Example 170, (1S,3′R,6′R,7′S,8′E,11′S,12′S)-6-chloro-7′-methoxy-12′-(methoxymethyl)-11′-methyl-7′-((4-(3-oxetanyl)-1-piperazinyl)methyl)-3,4-dihydro-2H,15′H-spiro[naphthalene-1,22′-[20]oxa[13]thia[1,14]diazatetracyclo [14.7.2.0~3,6~.0~19,24~]pentacosa[8,16,18,24]tetraen]-15′-one 13′,13′-dioxide] | 75 | 0.131 |  |  | 
CO[C@@]1(C)/C=C/C[C@H](C)[C@@H](CCO)S(=O)(=O)NC(=O)c2ccc3c(c2)N(C[C@@H]2CC[C@H]21)C[C@@]1(CCCc2cc(Cl)ccc21)CO3 (single isomer, unassigned) [Example 100593] |  |  | 215 | 0.464 | 
C[C@@H]1[C@@H](C)C/C=C/[C@@](O)(C(F)F)[C@@H]2CC[C@H]2CN2C[C@@]3(CCCc4cc(Cl)ccc43)COc3ccc(cc32)C(=O)NS1(=O)=O [Example 100069, (1S,3′R,6′R,7′S,8′E,11′S,12′R)-6-chloro-7′-(difluoromethyl)-7′-hydroxy-11′,12′-dimethyl-3,4-dihydro-2H,15′H-spiro[naphthalene-1,22′-[20]oxa[13]thia[1,14]diazatetracyclo [14.7.2.0~3,6~.0~19,24~]pentacosa[8,16,18,24]tetraen]-15′-one 13′,13′-dioxide] |  |  |  | 0.457 | 250
C[C@@H]1[C@@H](C)CCC[C@@](O)(CC(=O)N2CCOCC2)[C@@H]2CC[C@H]2CN2C[C@@]3(CCCc4cc(Cl)ccc43)COc3ccc(cc32)C(=O)NS1(=O)=O [Example 100086, (1S,3′R,6′R,7′R,11′S,12′R)-6-chloro-7′-hydroxy-11′,12′-dimethyl-7′-(2-(4-morpholinyl)-2-oxoethyl)-3,4-dihydro-2H,15′H-spiro[naphthalene-1,22′-[20]oxa[13]thia[1,14]diazatetracyclo [14.7.2.0~3,6~.0~19,24~]pentacosa[16,18,24]trien]-15′-one 13′,13′-dioxide] |  |  | 390 | 0.537 | 
CC[C@@H]1CC/C=C/[C@@](CN2CCN3CCOC[C@@H]3C2)(OC)[C@@H]2CC[C@H]2CN2C[C@@]3(CCCc4cc(Cl)ccc43)COc3ccc(cc32)C(=O)NS1(=O)=O [Example 30, (1S,3′R,6′R,7′R,8′E,12′R)-6-chloro-12′-ethyl-7′-((9aS)-hexahydropyrazino[2,1-c][1,4]oxazin-8(1H)-ylmethyl)-7′-methoxy-3,4-dihydro-2H,15′H-spiro[naphthalene-1,22′-[20]oxa[13]thia[1,14]diazatetracyclo [14.7.2.0~3,6~.0~19,24~]pentacosa[8,16,18,24]tetraen]-15′-one 13′,13′-dioxide] | 166 | 0.11 |  |  | 
C[C@@H]1[C@@H](C)C/C=C/[C@](C)(OCCN2CCOCC2)[C@@H]2CC[C@H]2CN2C[C@@]3(CCCc4cc(Cl)ccc43)COc3ccc(cc32)C(=O)NS1(=O)=O [Example 100007, (1 S,3′R,6′R,7′S,8′E,11′S, 12′R)-6-chloro-7′,11′,12′-trimethyl-7′-(2-(4-morpholinyl)ethoxy)-3,4-dihydro-2H, 15′H-spiro[naphthalene-1,22′-[20]oxa[13]thia[1,14]diazatetracyclo[14.7.2.0-3,6˜.0˜19,24˜]pentacosa[8,16,18,24]tetraen]-15′-one 13′,13′-dioxide] |  |  | 142 | 0.367 | 
COc1ncccc1[C@]1(OC)/C=C/C[C@H](C)[C@@H](C)S(=O)(=O)NC(=O)c2ccc3c(c2)N(C[C@@H]2CC[C@H]21)C[C@@]1(CCCc2cc(Cl)ccc21)CO3 [Example 100352, (1S,3′R,6′R,7′S,8′E,11′S,12′R)-6-chloro-7′-methoxy-7′-(2-methoxy-3-pyridinyl)-11′,12′-dimethyl-3,4-dihydro-2H,15′H-spiro[naphthalene-1,22′-[20]oxa[13]thia[1,14]diazatetracyclo [14.7.2.0~3,6~.0~19,24~]pentacosa[8,16,18,24]tetraen]-15′-one 13′,13′-dioxide] |  |  | 246 | 2.75 | 
C[C@@H]1[C@@H](C)C/C=C/[C@@](O)([C@@H](C)C(=O)N(C)C)[C@@H]2CC[C@H]2CN2C[C@@]3(CCCc4cc(Cl)ccc43)COc3ccc(cc32)C(=O)NS1(=O)=O (single isomer, unassigned) [Example 100126] |  |  |  | 0.183 | 41
